What all share (assay type): binding
The subject of test [1] is gelatin. Briefly: change in frequency with lipid membrane sensor, complex with gelatin. The method, then:
(§1) The electrode of a sensor equipped with a quartz oscillator (Fragrance Sensor SF-105, product of Sogo Pharmaceutical Co., Ltd.) was coated with a lipid membrane composed of dioctadecylammonium polystyrenesulfonic acid to obtain a lipid membrane sensor.
The change in frequency was also measured in the same manner as above except that gelatin (Aldrich Chemical Company, Inc.) or bovine serum albumin (Wako Junyaku Kogyo) was used instead of the mouse proline-rich peptide, and tannic acid (concentration after addition to buffer solution [hereunder referred to simply as “concentration in buffer solution”]: 8 mg/l, and polyphenone 100 (concentration in buffer solution: 50 mg/l) were added. As comparative tests, the same measurement was conducted using sucrose (sweet component, concentration in buffer solution: 1.7 mM), quinine sulfate (bitter component, concentration in buffer solution: 0.27 μM), tartaric acid (acidic component, concentration in buffer solution: 14 μM), NaCl (salty component, concentration in buffer solution: 1.1 mM) and glutamic acid (acidic/savory component, concentration in buffer solution: 30 μM). Also, the change in frequency during 4 minutes after adding different components using bovine serum albumin is shown in FIG. 11. […]

Test [2] concerns the target T1, bovine serum albumin (Bos taurus, UniProt P02769).
T1 construct: purchased Wako Junyaku Kogyo
Put plainly: change in frequency with lipid membrane sensor, complex with bovine serum albumin. The conditions noted are these: bovine serum albumin in acetate buffer, 4 minutes after adding, tannic acid 8 mg/l, polyphenone 100 50 mg/l, FIG. 11. The method, then:
as §1
The change in frequency was also measured in the same manner as above except that gelatin (Aldrich Chemical Company, Inc.) or bovine serum albumin (Wako Junyaku Kogyo) was used instead of the mouse proline-rich peptide, and tannic acid (concentration after addition to buffer solution [hereunder referred to simply as “concentration in buffer solution”]: 8 mg/l, and polyphenone 100 (concentration in buffer solution: 50 mg/l) were added. As comparative tests, the same measurement was conducted using sucrose (sweet component, concentration in buffer solution: 1.7 mM), quinine sulfate (bitter component, concentration in buffer solution: 0.27 μM), tartaric acid (acidic component, concentration in buffer solution: 14 μM), NaCl (salty component, concentration in buffer solution: 1.1 mM) and glutamic acid (acidic/savory component, concentration in buffer solution: 30 μM). Also, the change in frequency during 4 minutes after adding different components using bovine serum albumin is shown in FIG. 11.

Test [3] concerns mouse proline-rich peptide. Put plainly: change in frequency with lipid membrane sensor, complex with mouse proline-rich peptide. The conditions noted are these: FIG. 9.
Excerpt: as §1
The obtained astringency evaluating apparatus was used for measurement of the change in frequency corresponding to adsorption on to the lipid membrane by complex between proline-rich peptide and tannic acid.
First, the sensor element measuring section of the lipid membrane sensor was immersed in a 25 mM acetate buffer solution (pH 4.3) dissolving 50, 100 or 150 mg/l of mouse proline-rich peptide (Sawady Technologies), and stabilization of frequency was confirmed. Next, 0.1 ml of tannic acid was added to each mouse proline-rich peptide/acetate buffer solution, and the change in frequency was measured up to 5 minutes after addition. For the measurement, the tannic acid concentration of the buffer solution immediately after tannic acid addition was 8 mg/l.

The test system of test [4] is gelatin. Briefly: change in frequency with gelatin sensor (quartz oscillator with gelatin immobilized on the electrode). To be noted: catechin 2 ppm and 6 ppm; for change in frequency: gelatin sensor in distilled water, up to 4 minutes after addition, quercetin and epicatechin 20 μM. The method, then:
First, the gold electrode (diameter: 5 mm) of a sensor equipped with a quartz oscillator (Fragrance Sensor SF-105, product of Sogo Pharmaceutical Co., Ltd.) was immersed in 20 ml of a 1.2 N sodium hydroxide solution for 20 minutes, after which the electrode surface was washed with 500 ml of distilled water and immersed in 1.2 N dilute hydrochloric acid for 2 minutes. The electrode surface was then washed with distilled water and immersed in 12 N concentrated hydrochloric acid for 5 minutes, and the electrode was subsequently washed thoroughly with distilled water and dried at 100° C. for 20 minutes to obtain a quartz oscillator having hydroxyl groups arranged on the electrode surface.
After air-cooling the quartz oscillator, it was immersed in 0.3 ml of a 2% 3-aminopropyltriethoxysilane/acetone solution and allowed to stand at room temperature for 20 hours to introduce amino groups on to the electrode surface. The quartz oscillator was then subjected to ultrasonic washing treatment in 20 ml of acetone and dried at 70° C. for 90 minutes.
Next, 30 μl of 2.5% glutaraldehyde/20 mM phosphate buffer solution (pH 7.0) was placed on the amino group-introduced electrode surface, and the electrode was allowed to stand at room temperature for 2 hours. After then washing the electrode surface in 20 ml of 20 mM phosphate buffer solution and 20 ml of distilled water, it was mounted on an aqueous phase measuring sensor. […]
First, the sensor element measuring section of the gelatin sensor was immersed for 30 seconds in 100 ml of distilled water, and stabilization of frequency was confirmed. Next, 0.1 ml of a catechin/ethanol solution was added to the distilled water, and the change in frequency was measured up to 4 minutes after addition. […]
The change in frequency was also measured in the same manner as above except that quercetin/ethanol solutions and epicatechin/ethanol solutions were used instead of the catechin/ethanol solutions, and the astringency component concentration after addition to the distilled water was adjusted to 20 μM. […]

T1 sequence (P02769 25-607): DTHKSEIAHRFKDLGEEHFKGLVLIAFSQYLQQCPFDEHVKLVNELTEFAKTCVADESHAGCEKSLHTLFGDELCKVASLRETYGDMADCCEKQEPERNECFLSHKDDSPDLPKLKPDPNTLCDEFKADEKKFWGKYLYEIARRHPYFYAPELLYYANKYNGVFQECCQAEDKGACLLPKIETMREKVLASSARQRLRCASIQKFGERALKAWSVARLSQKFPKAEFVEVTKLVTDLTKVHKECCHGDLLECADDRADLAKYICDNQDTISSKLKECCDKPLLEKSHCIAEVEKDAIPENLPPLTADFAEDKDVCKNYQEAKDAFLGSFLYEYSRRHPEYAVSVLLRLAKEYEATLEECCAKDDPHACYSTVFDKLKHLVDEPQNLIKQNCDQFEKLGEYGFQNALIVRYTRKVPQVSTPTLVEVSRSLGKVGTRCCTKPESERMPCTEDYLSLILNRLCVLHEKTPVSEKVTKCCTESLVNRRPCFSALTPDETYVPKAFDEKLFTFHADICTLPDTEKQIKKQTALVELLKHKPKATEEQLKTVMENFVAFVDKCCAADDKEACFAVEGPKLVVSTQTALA

Turning to `O=C(OC[C@H]1O[C@@H](OC(=O)c2cc(O)c(O)c(OC(=O)c3cc(O)c(O)c(O)c3)c2)[C@H](OC(=O)c2cc(O)c(O)c(OC(=O)c3cc(O)c(O)c(O)c3)c2)[C@@H](OC(=O)c2cc(O)c(O)c(OC(=O)c3cc(O)c(O)c(O)c3)c2)[C@@H]1OC(=O)c1cc(O)c(O)c(OC(=O)c2cc(O)c(O)c(O)c2)c1)c1cc(O)c(O)c(OC(=O)c2cc(O)c(O)c(O)c2)c1` [tannic acid], the “correlation between tannic acid concentration and change in frequency” value in test [1] (10 mg/l gelatin/25 mM acetate buffer solution, FIG. 12) is on record as “adequately satisfactory correlation”. Moreover, the change in frequency result in test [1] (gelatin in acetate buffer, 4 minutes after adding, tannic acid 8 mg/l, polyphenone 100 50 mg/l, FIG. 10) is “notable change in frequency”; in test [2] it was “notable change in frequency”; in test [3] (25 mM acetate buffer pH 4.3, mouse proline-rich peptide 50, 100 or 150 mg/l, tannic acid 8 mg/l, up to 5 minutes), “notable change in frequency”. Also, in test [3] (mouse proline-rich peptide), the “change in frequency versus concentration” value was “greater with increasing tannic acid concentration”.

In the case of catechin, the change in frequency entry in test [4] is reported as “notable change in frequency”. Moreover, in test [4] (gelatin sensor, FIG. 5), the “change in frequency versus catechin concentration” value was “greater with increasing catechin concentration”.

For `O=c1c(O)c(-c2ccc(O)c(O)c2)oc2cc(O)cc(O)c12` [quercetin], the change in frequency result in test [4] is given as “notable change in frequency”.

(Values after US20040086607A1, “Food astringency evaluating method and astringency evaluating apparatus” (SAPPORO BREWERIES LIMITED, priority 2001, published 2004).)
